In one test the target is mMC1R (Mus musculus, UniProt Q01727). The test can be described thus: Agonist activity of N-capped tripeptides on mouse MC1 receptor.
Another test concerns the target mMC5R (Mus musculus, UniProt P41149). The test can be described thus: Agonist activity of N-capped tripeptides on mouse MC5 receptor.
For the next test, the target named is mMC4R (Mus musculus, UniProt P56450). Briefly: Agonist activity of N-capped tripeptides on mouse MC4 receptor.
The test system of another test is hMC1R. As to conditions: cited from earlier work; for EC50: read-out: EC50 hMC1R, agonist.
Test [1] concerns DNA damage resulting from exposure to solar UV radiation. The following applies: compared with α-MSH; ref 4a; cited from earlier work.
The subject of another test is hMC3R. The following applies: ref 3b; cited from earlier work.
In the next test the test system is hMC4R. As to conditions: ref 3b; cited from earlier work.

The values that follow come from paper PMC2758050 (Bioorganic & medicinal chemistry letters, 2009).

Read-outs that look alike come from different tables or passages of the source.

mMC1R, sequence (Q01727 whole entry): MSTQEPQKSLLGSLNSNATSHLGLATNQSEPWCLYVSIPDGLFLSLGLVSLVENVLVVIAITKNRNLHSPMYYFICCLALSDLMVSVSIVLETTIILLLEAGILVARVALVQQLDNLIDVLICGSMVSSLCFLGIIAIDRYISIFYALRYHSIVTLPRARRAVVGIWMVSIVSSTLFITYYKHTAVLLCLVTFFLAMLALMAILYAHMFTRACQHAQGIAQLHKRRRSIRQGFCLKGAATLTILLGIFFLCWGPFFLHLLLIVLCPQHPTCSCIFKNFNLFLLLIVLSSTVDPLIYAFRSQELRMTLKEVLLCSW
mMC5R, sequence (P41149 whole entry): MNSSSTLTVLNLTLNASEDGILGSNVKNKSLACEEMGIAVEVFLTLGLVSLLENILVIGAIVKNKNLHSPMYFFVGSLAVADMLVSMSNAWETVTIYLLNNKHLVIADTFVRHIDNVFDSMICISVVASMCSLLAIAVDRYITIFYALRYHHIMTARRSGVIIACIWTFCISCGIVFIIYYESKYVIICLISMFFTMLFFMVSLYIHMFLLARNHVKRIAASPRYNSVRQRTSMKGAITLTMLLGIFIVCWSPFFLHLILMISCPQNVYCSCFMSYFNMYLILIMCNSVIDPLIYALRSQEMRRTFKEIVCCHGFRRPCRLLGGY
mMC4R, sequence (P56450 whole entry): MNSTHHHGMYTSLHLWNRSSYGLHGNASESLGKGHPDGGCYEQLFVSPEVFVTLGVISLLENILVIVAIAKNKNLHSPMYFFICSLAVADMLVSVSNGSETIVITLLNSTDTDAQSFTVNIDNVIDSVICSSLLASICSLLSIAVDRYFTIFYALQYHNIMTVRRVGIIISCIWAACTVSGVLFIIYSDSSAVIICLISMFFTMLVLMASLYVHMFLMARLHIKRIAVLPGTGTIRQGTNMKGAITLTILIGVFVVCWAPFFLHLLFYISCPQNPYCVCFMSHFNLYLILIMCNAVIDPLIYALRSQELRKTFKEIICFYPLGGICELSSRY

Consider `N=C(N)NCCC[C@H](NC(=O)[C@@H](Cc1ccccc1)NC(=O)[C@H](Cc1c[nH]cn1)NC(=O)CCCc1ccccc1)C(=O)N[C@@H](Cc1c[nH]c2ccccc12)C(N)=O` [Compound 1, Ph(CH2)3CO-His-D-Phe-Arg-Trp-NH2], for which the EC50 – broadly, the midpoint of the concentration-response curve – was 1.6 ± 0.29 nM on mMC1R, 0.33 ± 0.14 nM on mMC5R, 0.54 ± 0.19 nM at mMC4R and 0.01 nM in the test on hMC1R (ref 3a). The “potency in repairing DNA damage resulting from solar UV radiation” value in test [1] is “more potent than α-MSH”.
Turning to `N=C(N)NCCC[C@H](NC(=O)[C@@H](Cc1ccccc1)NC(=O)[C@H](Cc1c[nH]cn1)NC(=O)CCCc1ccccc1)C(N)=O` [Compound 2, Ph(CH2)3CO-His-D-Phe-Arg-NH2], at mMC1R (vs tetrapeptide 1), the “loss in potency compared to 1 at mMC1R” value is 590 fold. The “type of agonism at hMC3R” value in the test on hMC3R is “weak partial agonism”. The “type of agonism at hMC4R” value in the test with hMC4R is given as “weak partial agonism”. In addition, in the test on hMC1R (ref 3b), the EC50 was 5 nM and the “type of agonism at hMC1R” value is listed as “full hMC1 agonist”.
